Calls of active or inactive are those of the source. The calls are words filed in the database; no cut-off is given here.
Assays:
[1] = Inhibition of amyloid beta (1 to 40) monomer aggregation assessed as lag time extension by thioflavin T based fluorometric assay relative to control
[2] = Inhibition of amyloid beta (1 to 40) monomer aggregation assessed as reduction in plateau fluorescence by thioflavin T based fluorometric assay; design: concentration or dose not given beside the values
[3] = Inhibition of amyloid beta (1 to 40) monomer aggregation assessed as doubling in lag time by thioflavin T based fluorometric assay
[4] = Inhibition of amyloid beta (1 to 40) monomer aggregation at 100 uM by thioflavin T based fluorometric assay

SMILES	fold change (FC) [1]	inhibition ([2]; concentration not given here)	also measured
O=c1oc2ccccc2cc1-n1cc(-c2ccccc2)nn1	2.2	88%	
CCN(CC)c1ccc2cc([N+](=O)[O-])c(=O)oc2c1	1.7		
CCN(CC)c1ccc2c(C#N)c(C(C)=O)c(=O)oc2c1	1.8		
O=c1oc2ccccc2cc1-c1nn[nH]n1	1	87%	
CCN(CC)c1ccc2c(C#N)c(N)c(=O)oc2c1	2.1		
O=C(O)CCCC(=O)NCc1cn(-c2cc3ccccc3oc2=O)nn1			Activity [1]: inactive; inhibition [2]: inactive
N#Cc1cc2ccccc2oc1=O	1	22%	
O=c1oc2ccccc2cc1-n1cc(-c2cccc3ccccc23)nn1	2	61%	Activity [3]: Active
O=c1cc(-n2cc(-c3ccccc3)nn2)c2ccccc2o1	1.4	73%	
CCN(CC)c1ccc2c(C#N)c(-c3nc4ccccc4s3)c(=O)oc2c1	1.1	38%	
CCN(CC)c1ccc2cc(-c3nc4ccccc4s3)c(=O)oc2c1	1.3	64%	
CCN(CC)c1ccc2c(-c3nnn[nH]3)c(-c3nc4ccccc4s3)c(=O)oc2c1	1	96%	
O=c1cc(Cl)c2ccccc2o1			Activity [4]: inactive; Activity [1]: inactive; inhibition [2]: inactive

Reference: ChEMBL document CHEMBL1765018, “Inhibition of amyloid-β aggregation by coumarin analogs can be manipulated by functionalization of the aromatic center” (Bioorg Med Chem, 2011)
